Converted amounts (≈) assume the structure as drawn.
Experiments:
Experiment in all cases: Broth microdilution antimicrobial activity
Format in all cases: cell-based
[1] = system: Bacillus cereus ATCC 10876
Text: (§1) Reference strains of microorganisms that came from American Type Culture Collection (ATCC) (Manassas, VA, USA) were used for this study. The representative Gram-positive bacteria were as follows: Staphylococcus aureus ATCC 25923, Staphylococcus aureus ATCC 29213, Staphylococcus aureus ATCC 43300, Staphylococcus epidermidis ATCC 12228, Enterococcus faecalis ATCC 29212, Micrococcus luteus ATCC 10240, Bacillus subtilis ATCC 6633 and Bacillus cereus ATCC 10876. While, those of Gram-negative bacteria were as follows: Bordetella bronchiseptica ATCC 4617, Escherichia coli ATCC 25922, Klebsiella pneumoniae ATCC 13883, Proteus mirabilis ATCC 12453, Salmonella Typhimurium ATCC 14028 and Pseudomonas aeruginosa ATCC 9027. Moreover, the following fungi belonging to yeasts were used: Candida albicans ATCC 10231, Candida albicans ATCC 2091, Candida parapsilosis ATCC 22019, Candida glabrata ATCC 90030 and Candida krusei ATCC 14243.
(§2) The new compounds WZ1–WZ4 were assayed for both antibacterial and antifungal activity using the broth microdilution method in accordance with the European Committee on Antimicrobial Susceptibility Testing (EUCAST) and Clinical and Laboratory Standards Institute (CLSI) guidelines. The microorganisms were grown at 35 °C for 18–24 h on appropriate media (nutrient agar and Sabouraud for bacteria and fungi, respectively) (BioMaxima S.A., Lublin, Poland). Next, microbial suspensions with an optical density of 0.5 McFarland standard scale (in sterile 0.85% NaCl) were prepared. In turn, the tested compounds were initially diluted at 50 mg/mL in dimethyl sulfoxide (DMSO) and the broth microdilution method was used to assess their minimum inhibitory concentrations (MICs). For these studies, selective broth Mueller-Hinton (MH) (BioMaxima S.A., Lublin, Poland) and RPMI (Roswell Park Memorial Institute) 1640 with MOPS (3-(N-Morpholino)propanesulfonic acid) (Sigma-Aldrich Chemicals, St. Louis, MO, USA) were used for bacteria and fungi, respectively. The antimicrobial effect of compounds WZ1–WZ4 was determined in the concentration range from 2000 to 0.98 µg/mL.
(§3) Then, the microbial suspensions were introduced into each well of the microplate and incubated for 18–24 h at 35 °C. […] The reference drugs ciprofloxacin or vancomycin (against bacteria) and nystatin (against fungi) (Sigma-Aldrich Chemicals, St. Louis, MO, USA) were also used. Next, the values of the minimum bactericidal concentration (MBC) and minimum fungicidal concentration (MFC) of WZ1–WZ4 were assessed. For this purpose, the cultures from each MIC determination well were transferred to a suitable solid medium and incubated under appropriate conditions. The lowest concentrations of compounds without microbial growth were read as MBC or MFC. The studies were performed in triplicate and representative data were gathered.
(§4) In turn, the MBC/MIC or MFC/MIC ratios were used to assess bactericidal/fungicidal (MBC/MIC or MFC/MIC ≤ 4) and bacteriostatic/fungistatic (MBC/MIC or MFC/MIC > 4) effect of these compounds [93].

[2] = system: Bacillus subtilis ATCC 6633
Text: as §1, §2, §3, §4

[3] = system: Bordetella bronchiseptica ATCC 4617
Text: as §1, §2, §3, §4

[4] = system: Candida albicans ATCC 10231
Text: as §1, §2, §3, §4

[5] = system: Candida albicans ATCC 2091
Text: as §1, §2, §3, §4

[6] = system: Candida glabrata ATCC 90030
Text: as §1, §2, §3, §4

[7] = system: Candida krusei ATCC 14243
Text: as §1, §2, §3, §4

[8] = system: Candida parapsilosis ATCC 22019
Text: as §1, §2, §3, §4

[9] = system: Enterococcus faecalis ATCC 29212; details: Enterococcus faecalis ATCC 29212
Text: as §1, §2, §3, §4

[10] = system: Escherichia coli ATCC 25922
Text: as §1, §2, §3, §4

[11] = system: Klebsiella pneumoniae ATCC 13883
Text: as §1, §2, §3, §4

[12] = system: Micrococcus luteus ATCC 10240
Text: as §1, §2, §3, §4

[13] = system: Proteus mirabilis ATCC 12453
Text: as §1, §2, §3, §4

[14] = system: Pseudomonas aeruginosa ATCC 9027
Text: as §1, §2, §3, §4

[15] = system: Salmonella Typhimurium ATCC 14028
Text: as §1, §2, §3, §4

[16] = system: Staphylococcus aureus ATCC 25923
Text: as §1, §2, §3, §4

[17] = system: Staphylococcus aureus ATCC 29213; details: Staphylococcus aureus ATCC 29213
Text: as §1, §2, §3, §4

[18] = system: Staphylococcus aureus ATCC 43300; details: Staphylococcus aureus ATCC 43300
Text: as §1, §2, §3, §4

[19] = system: Staphylococcus epidermidis ATCC 12228
Text: as §1, §2, §3, §4

`CCCCCCNC(=S)NNS(=O)(=O)c1ccccc1` [WZ3, 2-(Benzenesulfonyl)-N-Hexylhydrazine-1-Carbothioamide] was tested, and the MBC/MIC [1] was 1, the MBC ([1]; ATCC10876) was 250 mg/L (≈ 792 µM) and the MIC ([1]; ATCC10876) was 250 mg/L (≈ 792 µM). It also gave an MBC/MIC [2] of 4, an MBC ([2]; ATCC6633) of 500 mg/L (≈ 1580 µM) and an MIC ([2]; ATCC6633) of 125 mg/L (≈ 396 µM). It also gave an MBC/MIC [3] greater than 4, an MBC ([3]; ATCC4617) greater than 2000 mg/L and an MIC ([3]; ATCC4617) of 500 mg/L (≈ 1580 µM). The MFC/MIC [4] was 2, the MFC ([4]; ATCC10231, read-out: MFC) was 1000 mg/L (≈ 3170 µM) and the MIC ([4]; ATCC10231, read-out: MIC) was 500 mg/L (≈ 1580 µM). For the same compound, the MFC/MIC [5] was 2, the MFC ([5]; ATCC2091, read-out: MFC) was 1000 mg/L (≈ 3170 µM) and the MIC ([5]; ATCC2091, read-out: MIC) was 500 mg/L (≈ 1580 µM). It also gave an MFC/MIC [6] of 1, an MFC ([6]; Nakaseomyces glabratus, ATCC90030, read-out: MFC) of 2000 mg/L (≈ 6340 µM) and an MIC ([6]; Nakaseomyces glabratus, ATCC90030, read-out: MIC) of 2000 mg/L (≈ 6340 µM). It also gave an MFC/MIC [7] of 2, an MFC ([7]; Pichia kudriavzevii, ATCC14243, read-out: MFC) of 1000 mg/L (≈ 3170 µM) and an MIC ([7]; Pichia kudriavzevii, ATCC14243, read-out: MIC) of 500 mg/L (≈ 1580 µM). It also gave an MFC/MIC [8] of 1, an MFC ([8]; Lodderomyces parapsilosis, ATCC22019, read-out: MFC) of 2000 mg/L (≈ 6340 µM) and an MIC ([8]; Lodderomyces parapsilosis, ATCC22019, read-out: MIC) of 2000 mg/L (≈ 6340 µM). For the same compound, the MBC ([9]; ATCC29212, read-out: MBC) was greater than 2000 mg/L, the MIC ([9]; ATCC29212, read-out: MIC) was 500 mg/L (≈ 1580 µM) and the MBC/MIC [9] was greater than 4. For the same compound, the MBC/MIC [10] was greater than 4, the MBC ([10]; ATCC25922) was greater than 2000 mg/L and the MIC ([10]; ATCC25922) was 500 mg/L (≈ 1580 µM). It also gave an MBC/MIC [11] greater than 2, an MBC ([11]; ATCC13883) greater than 2000 mg/L and an MIC ([11]; ATCC13883) of 1000 mg/L (≈ 3170 µM). It also gave an MBC/MIC [12] of 2, an MBC ([12]; ATCC10240) of 500 mg/L (≈ 1580 µM) and an MIC ([12]; ATCC10240) of 250 mg/L (≈ 792 µM). It also gave an MBC/MIC [13] greater than 2, an MBC ([13]; ATCC12453) greater than 2000 mg/L and an MIC ([13]; ATCC12453) of 1000 mg/L (≈ 3170 µM). It also gave an MBC/MIC [14] of 1, an MBC ([14]; ATCC9027) of 1000 mg/L (≈ 3170 µM) and an MIC ([14]; ATCC9027) of 1000 mg/L (≈ 3170 µM). For the same compound, the MBC/MIC [15] was greater than 2, the MBC ([15]; Salmonella enterica) was greater than 2000 mg/L and the MIC ([15]; Salmonella enterica) was 1000 mg/L (≈ 3170 µM). The MBC/MIC [16] was 4, the MBC ([16]; ATCC25923) was 1000 mg/L (≈ 3170 µM) and the MIC ([16]; ATCC25923) was 250 mg/L (≈ 792 µM). The MBC ([17]; ATCC29213) was 500 mg/L (≈ 1580 µM), the MIC ([17]; ATCC29213) was 500 mg/L (≈ 1580 µM) and the MBC/MIC [17] was 1. For the same compound, the MBC ([18]; ATCC43300) was 500 mg/L (≈ 1580 µM), the MIC ([18]; ATCC43300) was 250 mg/L (≈ 792 µM) and the MBC/MIC [18] was 2. It also gave an MBC/MIC [19] of 1, an MBC ([19]; ATCC12228) of 250 mg/L (≈ 792 µM) and an MIC ([19]; ATCC12228) of 250 mg/L (≈ 792 µM).
